This passage reports Ki results from patent US20230295200A1 (REGENTS OF THE UNIVERSITY OF MICHIGAN, priority 2022, published 2023).

Each structure is given as a SMILES string.

In the assay the target is T1, STAT6 protein (Homo sapiens, UniProt P42226).
T1 sequence (P42226 1-847): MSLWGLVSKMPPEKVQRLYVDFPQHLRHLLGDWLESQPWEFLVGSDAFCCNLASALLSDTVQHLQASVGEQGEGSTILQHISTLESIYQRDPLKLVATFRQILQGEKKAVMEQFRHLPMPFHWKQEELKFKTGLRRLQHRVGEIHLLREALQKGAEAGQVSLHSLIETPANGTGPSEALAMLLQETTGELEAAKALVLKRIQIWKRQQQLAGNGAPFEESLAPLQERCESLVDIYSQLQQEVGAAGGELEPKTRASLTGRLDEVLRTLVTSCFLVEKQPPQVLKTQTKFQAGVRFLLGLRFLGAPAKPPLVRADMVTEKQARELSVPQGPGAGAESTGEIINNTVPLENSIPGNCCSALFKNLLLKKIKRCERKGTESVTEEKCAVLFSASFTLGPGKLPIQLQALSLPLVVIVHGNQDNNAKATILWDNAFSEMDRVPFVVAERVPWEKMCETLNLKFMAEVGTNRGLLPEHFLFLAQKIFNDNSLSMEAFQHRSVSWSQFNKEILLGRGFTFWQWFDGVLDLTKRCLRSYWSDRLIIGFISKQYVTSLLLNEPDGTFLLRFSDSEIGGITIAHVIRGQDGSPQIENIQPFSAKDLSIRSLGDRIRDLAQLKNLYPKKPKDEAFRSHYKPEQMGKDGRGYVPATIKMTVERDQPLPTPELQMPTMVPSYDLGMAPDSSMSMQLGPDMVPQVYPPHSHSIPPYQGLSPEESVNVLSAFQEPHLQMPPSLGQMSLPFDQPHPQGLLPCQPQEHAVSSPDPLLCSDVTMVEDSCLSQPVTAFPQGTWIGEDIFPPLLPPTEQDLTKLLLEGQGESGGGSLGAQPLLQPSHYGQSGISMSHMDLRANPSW
Kind of assay: Fluorescence polarization (FP) binding assay, STAT6. Particulars: FP competition, 5 nM fluorescein-labeled tracer, 200 nM protein, PBS pH7.4; read-out: Binding STAT6. As to the method: Evaluation of the activity of the inhibitors may be accomplished by fluorescence polarization (FP) experiments. A representative general protocol is the following:
Fluorescence polarization (FP) experiments are performed in black round-bottom plates using the CLARIOstar microplate reader. To each well, fluorescein-labeled tracer and STAT5 or STAT6 protein are added in assay buffer. […] The inhibition constants are determined as the concentration of the STAT5 or STAT6 at which 50% of the ligand is bound.
Fluorescence polarization (FP) experiments were performed in 96-well, black round-bottom plates (Microfluor 2, Fisher Scientific) using the CLARIOstar microplate reader (BMG Labtech). To each well, 5 nM of fluoresceinlabeled tracer and 200 nM of STAT5 and/or STAT6 protein were added to a final volume of 100 μl in the assay buffer (PBS pH7.4+0.01% BGG+0.01% Tween-20, 2 mM DTT). The plate was mixed on a shaker for 15 m and incubated at room temperature for 1 h to reach equilibrium. […] All experimental data were analyzed using Prism 8.0 software (GraphPad Software), and the inhibition constants were determined by nonlinear curve fitting as the concentration of the STAT5 and/or STAT6 at which 50% of the ligand is bound.
(Polarisation of emitted light reports the rotation of a fluorescent probe.)
Take `CC(C)(C)[C@H](NC(=O)c1cc2cc(C(F)(F)P(=O)(O)O)ccc2s1)C(=O)N1Cc2ccccc2C[C@H]1C(=O)N1CCCOC(c2ccccc2)C1` (stereo partly drawn) [Compound 220, ((2-(((2S)-3,3-dimethyl-1-oxo-1-((3S)-3-(2-phenyl-1,4-oxazepane-4-carbonyl)-3,4-dihydroisoquinolin-2(1H)-yl)butan-2-yl)carbamoyl)benzo[b]thiophen-5-yl)difluoromethyl)phosphonic acid]: the Ki fell in the range of 100 to 1000 nM.

As to `CC(C)(C)[C@H](NC(=O)c1cc2cc(C(F)(F)P(=O)(O)O)ccc2s1)C(=O)N1Cc2ccccc2C[C@H]1C(=O)N1CCOC(Cc2ccccc2)C1` (stereo partly drawn) [Compound 221, ((2-(((2S)-1-((3S)-3-(2-benzylmorpholine-4-carbonyl)-3,4-dihydroisoquinolin-2(1H)-yl)-3,3-dimethyl-1-oxobutan-2-yl)carbamoyl)benzo[b]thiophen-5-yl)difluoromethyl)phosphonic acid], the Ki lay within 100 to 1000 nM. Then `CC(C)(C)[C@H](NC(=O)c1cc2cc(C(F)(F)P(=O)(O)O)ccc2s1)C(=O)N1Cc2ccccc2C[C@H]1C(=O)N1CCOC(C2CCCCC2)C1` (stereo partly drawn) [Compound 222, ((2-(((2S)-1-((3S)-3-(2-cyclohexylmorpholine-4-carbonyl)-3,4-dihydroisoquinolin-2(1H)-yl)-3,3-dimethyl-1-oxobutan-2-yl)carbamoyl)benzo[b]thiophen-5-yl)difluoromethyl)phosphonic acid], with 100 to 1000 nM. For the compound `CC(C)(C)[C@H](NC(=O)c1cc2cc(C(F)(F)P(=O)(O)O)ccc2s1)C(=O)N1Cc2ccccc2C[C@H]1C(=O)N1CCSC(c2ccccc2)C1` (stereo partly drawn) [Compound 223, ((2-(((2S)-3,3-dimethyl-1-oxo-1-((3S)-3-(2-phenylthiomorpholine-4-carbonyl)-3,4-dihydroisoquinolin-2(1H)-yl)butan-2-yl)carbamoyl)benzo[b]thiophen-5-yl)difluoromethyl)phosphonic acid], the Ki is less than 100 nM. Then `CC(C)(C)[C@H](NC(=O)c1cc2cc(C(F)(F)P(=O)(O)O)ccc2s1)C(=O)N1Cc2ccccc2C[C@H]1C(=O)N1CCS(=O)(=O)[C@H](c2ccccc2)C1` [Compound 224, ((2-(((S)-1-((S)-3-((R)-1,1-dioxido-2-phenylthiomorpholine-4-carbonyl)-3,4-dihydroisoquinolin-2(1H)-yl)-3,3-dimethyl-1-oxobutan-2-yl)carbamoyl)benzo[b]thiophen-5-yl)difluoromethyl)phosphonic acid], with less than 100 nM; and `CC(C)(C)[C@H](NC(=O)c1cc2cc(C(F)(F)P(=O)(O)O)ccc2s1)C(=O)N1Cc2ccccc2C[C@H]1C(=O)N1CCS(=O)(=O)[C@@H](c2ccccc2)C1` [Compound 225, ((2-(((S)-1-((S)-3-((S)-1,1-dioxido-2-phenylthiomorpholine-4-carbonyl)-3,4-dihydroisoquinolin-2(1H)-yl)-3,3-dimethyl-1-oxobutan-2-yl)carbamoyl)benzo[b]thiophen-5-yl)difluoromethyl)phosphonic acid], with 100 to 1000 nM. As to `CC1CN(C(=O)[C@@H]2Cc3ccccc3CN2C(=O)[C@@H](NC(=O)c2cc3cc(C(F)(F)P(=O)(O)O)ccc3s2)C(C)(C)C)CC(c2ccccc2)O1` (stereo partly drawn) [Compound 226, ((2-(((2S)-3,3-dimethyl-1-((3S)-3-(2-methyl-6-phenylmorpholine-4-carbonyl)-3,4-dihydroisoquinolin-2(1H)-yl)-1-oxobutan-2-yl)carbamoyl)benzo[b]thiophen-5-yl)difluoromethyl)phosphonic acid], the Ki lay within 100 to 1000 nM.

Turning to `CC(C)(C)[C@H](NC(=O)c1cc2cc(C(F)(F)P(=O)(O)O)ccc2s1)C(=O)N1Cc2ccccc2C[C@H]1C(=O)N1CCOC(c2cccc3ccccc23)C1` (stereo partly drawn) [Compound 227, ((2-(((2S)-3,3-dimethyl-1-((3S)-3-(2-(naphthalen-1-yl)morpholine-4-carbonyl)-3,4-dihydroisoquinolin-2(1H)-yl)-1-oxobutan-2-yl)carbamoyl)benzo[b]thiophen-5-yl)difluoromethyl)phosphonic acid], the Ki is 100 to 1000 nM.

As for `Cc1ccccc1C1CN(C(=O)[C@@H]2Cc3ccccc3CN2C(=O)[C@@H](NC(=O)c2cc3cc(C(F)(F)P(=O)(O)O)ccc3s2)C(C)(C)C)CCO1` (stereo partly drawn) [Compound 228, ((2-(((2S)-3,3-dimethyl-1-oxo-1-((3S)-3-(2-(o-tolyl)morpholine-4-carbonyl)-3,4-dihydroisoquinolin-2(1H)-yl)butan-2-yl)carbamoyl)benzo[b]thiophen-5-yl)difluoromethyl)phosphonic acid], the Ki lay within 100 to 1000 nM. Turning to `Cc1ccc(C2CN(C(=O)[C@@H]3Cc4ccccc4CN3C(=O)[C@@H](NC(=O)c3cc4cc(C(F)(F)P(=O)(O)O)ccc4s3)C(C)(C)C)CCO2)c(C)c1` (stereo partly drawn) [Compound 229, ((2-(((2S)-1-((3S)-3-(2-(2,4-dimethylphenyl)morpholine-4-carbonyl)-3,4-dihydroisoquinolin-2(1H)-yl)-3,3-dimethyl-1-oxobutan-2-yl)carbamoyl)benzo[b]thiophen-5-yl)difluoromethyl)phosphonic acid], the Ki lay in the range of 1000 to 10000 nM.

For the compound `CC(C)(C)[C@H](NC(=O)c1cc2cc(C(F)(F)P(=O)(O)O)ccc2s1)C(=O)N1Cc2ccccc2C[C@H]1C(=O)N1CCOC(c2ccccc2F)C1` (stereo partly drawn) [Compound 230, (difluoro(2-(((2S)-1-((3S)-3-(2-(2-fluorophenyl)morpholine-4-carbonyl)-3,4-dihydroisoquinolin-2(1H)-yl)-3,3-dimethyl-1-oxobutan-2-yl)carbamoyl)benzo[b]thiophen-5-yl)methyl)phosphonic acid], the Ki fell in the range of 100 to 1000 nM. As for `CC(C)(C)[C@H](NC(=O)c1cc2cc(C(F)(F)P(=O)(O)O)ccc2s1)C(=O)N1Cc2ccccc2C[C@H]1C(=O)N1CCOC(c2ccc(F)cc2)C1` (stereo partly drawn) [Compound 231, (difluoro(2-(((2S)-1-((3S)-3-(2-(4-fluorophenyl)morpholine-4-carbonyl)-3,4-dihydroisoquinolin-2(1H)-yl)-3,3-dimethyl-1-oxobutan-2-yl)carbamoyl)benzo[b]thiophen-5-yl)methyl)phosphonic acid], the Ki was 100 to 1000 nM. Take `CC(C)(C)[C@H](NC(=O)c1cc2cc(C(F)(F)P(=O)(O)O)ccc2s1)C(=O)N1Cc2ccccc2C[C@H]1C(=O)N1CCOC(c2ccccc2Cl)C1` (stereo partly drawn) [Compound 232, ((2-(((2S)-1-((3S)-3-(2-(2-chlorophenyl)morpholine-4-carbonyl)-3,4-dihydroisoquinolin-2(1H)-yl)-3,3-dimethyl-1-oxobutan-2-yl)carbamoyl)benzo[b]thiophen-5-yl)difluoromethyl)phosphonic acid]: the Ki lay in the range of 100 to 1000 nM. In the case of `CC(C)(C)[C@H](NC(=O)c1cc2cc(C(F)(F)P(=O)(O)O)ccc2s1)C(=O)N1Cc2ccccc2C[C@H]1C(=O)N1CCOC(c2cccc(Cl)c2)C1` (stereo partly drawn) [Compound 233, ((2-(((2S)-1-((3S)-3-(2-(3-chlorophenyl)morpholine-4-carbonyl)-3,4-dihydroisoquinolin-2(1H)-yl)-3,3-dimethyl-1-oxobutan-2-yl)carbamoyl)benzo[b]thiophen-5-yl)difluoromethyl)phosphonic acid], the Ki was less than 100 nM. In the case of `CC(C)(C)[C@H](NC(=O)c1cc2cc(C(F)(F)P(=O)(O)O)ccc2s1)C(=O)N1Cc2ccccc2C[C@H]1C(=O)N1CCOC(c2ccc(Cl)cc2)C1` (stereo partly drawn) [Compound 234, ((2-(((2S)-1-((3S)-3-(2-(4-chlorophenyl)morpholine-4-carbonyl)-3,4-dihydroisoquinolin-2(1H)-yl)-3,3-dimethyl-1-oxobutan-2-yl)carbamoyl)benzo[b]thiophen-5-yl)difluoromethyl)phosphonic acid], the Ki lay within 100 to 1000 nM. Consider `CC1(c2ccc(Cl)cc2)CN(C(=O)[C@@H]2Cc3ccccc3CN2C(=O)[C@@H](NC(=O)c2cc3cc(C(F)(F)P(=O)(O)O)ccc3s2)C(C)(C)C)CCO1` (stereo partly drawn) [Compound 235, ((2-(((2S)-1-((3S)-3-(2-(4-chlorophenyl)-2-methylmorpholine-4-carbonyl)-3,4-dihydroisoquinolin-2(1H)-yl)-3,3-dimethyl-1-oxobutan-2-yl)carbamoyl)benzo[b]thiophen-5-yl)difluoromethyl)phosphonic acid], for which the Ki fell in the range of 1000 to 10000 nM.
